Assay results taken from ChEMBL document CHEMBL1201862, “PubChem BioAssay data set” (2004).
Calls of active or inactive are those of the source.

How the values were obtained:
[1] = biological target: Cytochrome P450 2C19 (Homo sapiens, UniProt P33261); test: Cytochrome panel assay with activity outcomes. Panel member name: p450-cyp2c19 Compounds with AC50 equal or less than 10 uM are considered active; assay type: functional; settings: read-out: AC50
[2] = biological target: Cytochrome P450 2C9 (Homo sapiens, UniProt P11712)
[3] = HEp-2 cell cytotoxicity, dose response, cytotoxicity control for RSV inhibitor project, HTS (AID 2410); assay type: functional; settings: human respiratory syncytial virus
[4] = biological target: Voltage-gated inwardly rectifying potassium channel KCNH2 (Homo sapiens, UniProt Q12809); settings: Potency;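 also: confirmatory quantitative high-throughput screen measuring inhibition of hERG channel activity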
[5] = Luminescence Cell-Based Dose Retest to Confirm Inhibitors of Cancer Stem Cells. [Related pubchem assays (depositor defined):AID2717, AID2721]; assay type: functional; settings: Homo sapiens
[6] = inhibitors of intracellular T. cruzi replication, confirmation, NIH3T3 host cells, beta-gal luminescence (AID 2044); assay type: functional, cell-based;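 also: intracellular parasites grown in NIH/3T3 mouse fibroblasts as host cells; luminescent beta-galactosidase reporter signal from transgenic T. cruzi replicating inside host cells; inhibitors lower the luminescence signal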
[7] = cytotoxicity toward NIH3T3 fibroblasts, dose response, counter-screen, cell-based, ATP luminescence, mouse fibroblasts (AID 2010); assay type: functional;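 also: cells exposed to compound for about 90 hours before reading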
[8] = cytotoxicity in HMLE control line with eGFP shRNA, dose response, counter-screen for HMLE_sh_ECad selective toxicity project, cell-based, HMLE_sh_eGFP, luminescence (AID 463074); assay type: functional, Homo sapiens;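 also: HMLE human mammary epithelial cells expressing control shRNA against eGFP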
[9] = biological target: T1, Type-1 angiotensin II receptor (Homo sapiens, UniProt P30556); test: AT1 receptor antagonists, dose response, selectivity assay for APJ receptor antagonist project, cell-based, uHTS hits (AID 463214); assay type: functional;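 also: antagonist potency against angiotensin II stimulated AT1 response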
T1 sequence (P30556 whole entry): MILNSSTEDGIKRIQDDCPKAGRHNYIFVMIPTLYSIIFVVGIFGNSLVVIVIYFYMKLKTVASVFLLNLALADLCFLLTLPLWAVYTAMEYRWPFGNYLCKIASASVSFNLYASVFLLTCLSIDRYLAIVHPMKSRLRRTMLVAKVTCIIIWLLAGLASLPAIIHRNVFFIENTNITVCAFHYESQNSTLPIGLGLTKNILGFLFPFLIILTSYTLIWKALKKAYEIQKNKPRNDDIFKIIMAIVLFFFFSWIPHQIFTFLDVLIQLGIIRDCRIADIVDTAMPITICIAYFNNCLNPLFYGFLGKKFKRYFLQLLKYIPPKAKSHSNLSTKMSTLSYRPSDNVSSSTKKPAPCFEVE

[10] = biological target: Beta-galactosidase (Escherichia coli, UniProt Q8VNN2); test: PubChem AID 485352; assay type: functional
[11] = NIH-3T3 fibroblast cytotoxicity, dose response, cytotoxicity control, cell-based, fluorescence, Alamar Blue, secondary assay (AID 2327); assay type: functional;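 also: NIH-3T3 mouse fibroblasts cultured with fluconazole at 8 µg/mL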
[12] = biological target: ATP-dependent molecular chaperone HSP82 (Candida albicans (strain WO-1) (Yeast), UniProt C4YTQ8); test: loss of DOC-induced GRE-beta-galactosidase reporter signal, dose response, Hsp90 inhibitor project, S. cerevisiae, luminescence (AID 2400); assay type: functional, cell-based;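 also: beta-galactosidase luminescence from glucocorticoid response element reporter as proxy for Hsp90 function; inhibitor potency where signal loss means Hsp90 inhibition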
[13] = C. albicans growth with fluconazole, confirmation, fluorescence, retest (AID 2467); assay type: functional, cell-based
[14] = biological target: T2, Serine/threonine-protein phosphatase (Candida dubliniensis (strain CD36 / CBS 7987 / NCPF 3949 / NRRLY-17841) (Yeast), UniProt B9W6M3); test: calcineurin pathway inhibitors in yeast reporter, dose response, S. cerevisiae, CDRE-lacZ, luminescence, secondary (AID 2388); assay type: functional, cell-based;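 also: yeast reporter cells carrying a calcineurin-responsive lacZ construct stimulated with calcium chloride; luminescent beta-galactosidase reporter signal in whole cells rather than isolated phosphatase activity; potency for inhibition where a drop in reporter signal means calcineurin blockade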
T2 sequence (B9W6M3 whole entry): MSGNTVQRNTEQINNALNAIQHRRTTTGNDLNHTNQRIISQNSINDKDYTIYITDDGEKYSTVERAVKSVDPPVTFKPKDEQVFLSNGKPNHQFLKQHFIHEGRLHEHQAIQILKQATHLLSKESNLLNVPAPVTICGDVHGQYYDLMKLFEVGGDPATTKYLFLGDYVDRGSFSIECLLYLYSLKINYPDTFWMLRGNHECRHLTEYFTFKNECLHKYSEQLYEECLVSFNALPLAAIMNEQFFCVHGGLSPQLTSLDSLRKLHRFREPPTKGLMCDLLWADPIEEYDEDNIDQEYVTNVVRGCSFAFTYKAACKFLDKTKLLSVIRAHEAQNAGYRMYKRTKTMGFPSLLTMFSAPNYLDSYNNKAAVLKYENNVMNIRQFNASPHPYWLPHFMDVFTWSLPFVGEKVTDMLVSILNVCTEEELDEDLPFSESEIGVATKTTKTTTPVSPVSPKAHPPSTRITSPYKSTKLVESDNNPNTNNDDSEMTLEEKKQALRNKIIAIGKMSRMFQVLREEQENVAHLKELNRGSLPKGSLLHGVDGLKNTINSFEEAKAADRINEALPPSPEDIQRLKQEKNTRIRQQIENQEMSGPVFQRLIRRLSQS

[15] = system: BJ; test: cells; assay type: functional, cell-based; settings: Homo sapiens
[16] = system: BJ; test: cytotoxicity toward BJ-TERT-LT-ST fibroblasts, dose response, cell-based, RAS-independent, luminescence (AID 1935); assay type: functional; settings: Homo sapiens;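 also: BJ fibroblasts immortalized with TERT plus LT and ST oncogenes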
[17] = system: BJ; test: cytotoxicity toward Ras-transformed BJeLR fibroblasts, dose response, cell-based, alamar blue fluorescence, cherrypicked samples (AID 2631); assay type: functional; settings: Homo sapiens;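 also: confirmatory dose-response assay in RAS-dependent BJ fibroblasts engineered with TERT, LT and ST, with cytotoxicity read by fluorescence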
[18] = Luminescence Cell-Based Dose Response HTS to Identify Inhibitors of 5'UTR Stem-Loop Driven Prion Protein mRNA Translation in H4 Neuroglioblastoma Cells. [Related pubchem assays: 1827 (Project Summary), 1813 (Primary HTS)]; assay type: functional
[19] = cytotoxicity toward DRD oncogenic fibroblasts, dose response, cell-based, non-viral oncogenic, luminescence (AID 1934); assay type: functional; settings: Homo sapiens
[20] = system: BJ; test: cytotoxicity toward BJ-TERT fibroblasts, dose response, cell-based, RAS-independent, luminescence (AID 1933); assay type: functional; settings: Homo sapiens
[21] = inhibitors of firefly luciferase expression or activity, dose response, H4 neuroglioma cells, luminescence (AID 1990); assay type: functional, cell-based
[22] = inhibitors of SNCA 5'UTR-driven reporter translation, confirmation, H4 neuroglioma cells, luminescence (AID 1988); assay type: functional, cell-based
[23] = biological target: T3, Short transient receptor potential channel 4 (Mus musculus, UniProt Q9QUQ5); test: mouse TRPC4 channel inhibitors, dose response, cell-based, HEK293 TRPC4/mu-opioid, Fluo-4 calcium (AID 434942); assay type: functional;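 also: potency of inhibitors blocking the TRPC4 calcium response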
T3 sequence (Q9QUQ5 whole entry): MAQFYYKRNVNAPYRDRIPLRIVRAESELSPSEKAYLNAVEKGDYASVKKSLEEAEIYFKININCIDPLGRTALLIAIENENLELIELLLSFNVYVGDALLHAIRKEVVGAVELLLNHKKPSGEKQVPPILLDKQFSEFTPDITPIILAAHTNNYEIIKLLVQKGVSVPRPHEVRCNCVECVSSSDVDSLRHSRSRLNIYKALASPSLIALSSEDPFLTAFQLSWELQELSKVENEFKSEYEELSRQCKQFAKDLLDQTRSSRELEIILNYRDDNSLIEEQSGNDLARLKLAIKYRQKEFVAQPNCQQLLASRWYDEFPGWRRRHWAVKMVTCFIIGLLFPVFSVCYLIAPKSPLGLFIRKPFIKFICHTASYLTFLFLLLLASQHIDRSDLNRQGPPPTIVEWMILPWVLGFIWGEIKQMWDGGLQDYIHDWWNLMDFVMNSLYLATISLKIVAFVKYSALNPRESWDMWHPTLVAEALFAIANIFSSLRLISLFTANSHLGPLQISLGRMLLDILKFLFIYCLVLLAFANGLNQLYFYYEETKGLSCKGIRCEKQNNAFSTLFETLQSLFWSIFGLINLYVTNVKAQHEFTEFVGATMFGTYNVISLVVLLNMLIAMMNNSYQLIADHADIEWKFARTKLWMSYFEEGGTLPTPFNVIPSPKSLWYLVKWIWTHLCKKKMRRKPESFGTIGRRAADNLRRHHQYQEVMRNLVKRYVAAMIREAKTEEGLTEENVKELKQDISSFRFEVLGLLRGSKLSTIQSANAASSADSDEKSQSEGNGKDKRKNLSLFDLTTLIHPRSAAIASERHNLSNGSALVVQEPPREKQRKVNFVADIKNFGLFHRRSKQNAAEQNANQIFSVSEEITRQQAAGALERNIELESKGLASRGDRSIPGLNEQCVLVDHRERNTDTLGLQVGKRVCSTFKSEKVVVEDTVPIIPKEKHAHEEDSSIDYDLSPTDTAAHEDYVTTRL

[24] = biological target: Peroxisome proliferator-activated receptor gamma/Nuclear receptor coactivator 3 (Homo sapiens, UniProt P37231); test: TR-FRET dose response biochemical High Throughput Screening assay for agonists of the steroid receptor coactivator 3 (SRC-3) recruitment by the peroxisome proliferator-activated receptor gamma (PPAR gamma): non-selective agonists. [Related pubchem assays: 1301 (Confirmation screen.), 1048 (Primary screen.)]; assay type: functional
[25] = biological target: T4, Rac GTPase-activating protein 1 (Homo sapiens, UniProt Q9H0H5); test: MgcRacGAP GTPase-activating activity inhibitors, confirmation, biochemical, ADP Hunter fluorescence, primary and confirmatory (AID 624330); assay type: functional
T4 sequence (Q9H0H5 whole entry): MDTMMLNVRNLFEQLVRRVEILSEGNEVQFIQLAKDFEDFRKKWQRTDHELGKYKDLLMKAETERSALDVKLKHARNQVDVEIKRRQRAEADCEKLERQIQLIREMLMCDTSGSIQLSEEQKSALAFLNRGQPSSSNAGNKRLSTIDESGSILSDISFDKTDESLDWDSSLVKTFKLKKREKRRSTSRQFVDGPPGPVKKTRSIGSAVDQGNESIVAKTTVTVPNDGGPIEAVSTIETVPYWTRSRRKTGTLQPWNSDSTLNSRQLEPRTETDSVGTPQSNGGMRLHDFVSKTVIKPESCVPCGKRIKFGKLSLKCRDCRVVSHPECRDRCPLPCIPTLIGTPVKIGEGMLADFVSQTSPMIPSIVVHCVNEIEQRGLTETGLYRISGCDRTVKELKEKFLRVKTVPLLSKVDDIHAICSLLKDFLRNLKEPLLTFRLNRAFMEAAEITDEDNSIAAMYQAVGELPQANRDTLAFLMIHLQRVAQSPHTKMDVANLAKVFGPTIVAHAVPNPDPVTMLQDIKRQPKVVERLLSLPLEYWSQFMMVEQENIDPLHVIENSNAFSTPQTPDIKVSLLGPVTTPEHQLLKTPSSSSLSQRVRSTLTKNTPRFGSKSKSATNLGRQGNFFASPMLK

[26] = biological target: Dual specificity tyrosine-phosphorylation-regulated kinase 1A (Rattus norvegicus, UniProt Q63470); assay type: biochemical, Homo sapiens
[27] = biological target: Peroxisome proliferator-activated receptor gamma/Nuclear receptor coactivator 2 (Homo sapiens, UniProt P37231); test: (§1) TR-FRET dose response biochemical High Throughput Screening assay for agonists of the steroid receptor coactivator 2 (SRC-2) recruitment by the peroxisome proliferator-activated receptor gamma (PPAR gamma): non-selective agonists. [Related pubchem assays: 1297, 1032 ]; assay type: functional
[28] = biological target: Peroxisome proliferator-activated receptor gamma/Nuclear receptor coactivator 1 (Homo sapiens, UniProt P37231); test: as §1, with “1 (SRC-1)” for “2 (SRC-2)”, “assays (depositor defined):AID1300, AID1808, AID504735, AID631]” for “assays: 1297, 1032 ]”; assay type: protein assay

Chain of Voltage-gated inwardly rectifying potassium channel KCNH2 (Q12809 whole entry): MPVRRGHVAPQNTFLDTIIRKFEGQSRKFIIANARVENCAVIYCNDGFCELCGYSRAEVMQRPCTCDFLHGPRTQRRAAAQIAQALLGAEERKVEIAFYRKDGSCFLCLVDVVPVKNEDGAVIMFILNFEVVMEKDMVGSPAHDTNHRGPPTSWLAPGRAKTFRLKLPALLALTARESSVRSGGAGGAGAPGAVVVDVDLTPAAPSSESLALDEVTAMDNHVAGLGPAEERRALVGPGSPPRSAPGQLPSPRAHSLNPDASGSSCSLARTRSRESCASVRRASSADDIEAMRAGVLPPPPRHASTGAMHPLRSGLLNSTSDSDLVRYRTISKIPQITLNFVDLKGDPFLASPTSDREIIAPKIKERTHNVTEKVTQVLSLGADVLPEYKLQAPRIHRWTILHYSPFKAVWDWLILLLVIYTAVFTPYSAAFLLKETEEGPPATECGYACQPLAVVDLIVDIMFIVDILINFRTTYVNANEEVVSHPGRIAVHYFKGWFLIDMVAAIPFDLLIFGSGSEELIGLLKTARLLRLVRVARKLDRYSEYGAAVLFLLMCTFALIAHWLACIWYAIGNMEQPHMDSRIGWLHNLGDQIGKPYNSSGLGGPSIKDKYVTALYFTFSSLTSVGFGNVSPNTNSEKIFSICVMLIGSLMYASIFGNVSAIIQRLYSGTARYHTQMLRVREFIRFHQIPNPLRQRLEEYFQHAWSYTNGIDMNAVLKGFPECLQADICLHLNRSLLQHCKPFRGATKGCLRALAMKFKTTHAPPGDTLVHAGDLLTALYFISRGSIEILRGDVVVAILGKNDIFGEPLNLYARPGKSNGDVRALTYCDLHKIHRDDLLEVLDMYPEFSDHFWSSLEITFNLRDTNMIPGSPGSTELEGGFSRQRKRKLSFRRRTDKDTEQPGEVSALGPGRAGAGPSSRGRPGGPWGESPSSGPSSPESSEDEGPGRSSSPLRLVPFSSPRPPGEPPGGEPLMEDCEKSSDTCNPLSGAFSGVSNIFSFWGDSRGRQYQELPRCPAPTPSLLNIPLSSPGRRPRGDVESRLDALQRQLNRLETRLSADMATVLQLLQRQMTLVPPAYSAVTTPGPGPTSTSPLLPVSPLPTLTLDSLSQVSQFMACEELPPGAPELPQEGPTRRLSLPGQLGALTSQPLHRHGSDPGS
Chain of Beta-galactosidase (Q8VNN2 whole entry): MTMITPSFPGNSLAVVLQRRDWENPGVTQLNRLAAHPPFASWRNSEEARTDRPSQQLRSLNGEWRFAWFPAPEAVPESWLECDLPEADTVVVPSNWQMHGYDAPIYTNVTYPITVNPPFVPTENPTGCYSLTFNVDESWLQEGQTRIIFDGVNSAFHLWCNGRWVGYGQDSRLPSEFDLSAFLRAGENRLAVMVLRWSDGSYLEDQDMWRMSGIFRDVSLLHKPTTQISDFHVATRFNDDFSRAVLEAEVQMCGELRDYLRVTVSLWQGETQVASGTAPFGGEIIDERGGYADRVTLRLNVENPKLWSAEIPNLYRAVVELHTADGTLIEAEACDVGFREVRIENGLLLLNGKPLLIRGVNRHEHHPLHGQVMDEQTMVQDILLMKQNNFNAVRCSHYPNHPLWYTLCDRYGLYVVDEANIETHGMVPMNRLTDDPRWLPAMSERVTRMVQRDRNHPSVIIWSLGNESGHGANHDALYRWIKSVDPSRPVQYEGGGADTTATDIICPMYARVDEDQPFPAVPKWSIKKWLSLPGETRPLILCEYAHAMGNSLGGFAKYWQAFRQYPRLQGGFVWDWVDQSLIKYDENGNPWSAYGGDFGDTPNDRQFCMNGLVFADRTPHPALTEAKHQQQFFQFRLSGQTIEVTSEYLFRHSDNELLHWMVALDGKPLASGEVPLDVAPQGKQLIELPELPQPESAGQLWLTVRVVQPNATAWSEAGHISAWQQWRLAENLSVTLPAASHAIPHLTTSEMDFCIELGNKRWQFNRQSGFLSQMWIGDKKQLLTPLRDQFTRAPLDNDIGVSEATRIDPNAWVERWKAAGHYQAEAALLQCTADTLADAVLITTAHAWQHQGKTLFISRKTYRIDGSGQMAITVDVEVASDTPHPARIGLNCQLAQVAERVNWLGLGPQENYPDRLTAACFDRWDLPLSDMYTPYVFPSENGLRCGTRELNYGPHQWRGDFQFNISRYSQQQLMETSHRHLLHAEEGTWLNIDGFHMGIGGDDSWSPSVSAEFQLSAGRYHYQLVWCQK
Chain of Cytochrome P450 2C19 (P33261 whole entry): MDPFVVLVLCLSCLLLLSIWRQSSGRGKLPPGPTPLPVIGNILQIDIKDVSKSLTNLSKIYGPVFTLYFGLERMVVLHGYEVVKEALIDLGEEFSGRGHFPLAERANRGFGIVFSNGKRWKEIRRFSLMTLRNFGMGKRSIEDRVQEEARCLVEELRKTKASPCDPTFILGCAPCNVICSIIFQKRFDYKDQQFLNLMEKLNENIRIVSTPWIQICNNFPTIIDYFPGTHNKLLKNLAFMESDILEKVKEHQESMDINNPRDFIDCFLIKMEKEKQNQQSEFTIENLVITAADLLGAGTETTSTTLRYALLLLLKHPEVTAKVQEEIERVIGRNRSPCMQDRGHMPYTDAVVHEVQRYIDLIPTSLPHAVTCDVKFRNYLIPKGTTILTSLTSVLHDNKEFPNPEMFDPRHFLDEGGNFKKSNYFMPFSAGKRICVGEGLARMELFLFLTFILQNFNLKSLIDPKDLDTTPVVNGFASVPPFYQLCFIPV
Chain of ATP-dependent molecular chaperone HSP82 (C4YTQ8 whole entry): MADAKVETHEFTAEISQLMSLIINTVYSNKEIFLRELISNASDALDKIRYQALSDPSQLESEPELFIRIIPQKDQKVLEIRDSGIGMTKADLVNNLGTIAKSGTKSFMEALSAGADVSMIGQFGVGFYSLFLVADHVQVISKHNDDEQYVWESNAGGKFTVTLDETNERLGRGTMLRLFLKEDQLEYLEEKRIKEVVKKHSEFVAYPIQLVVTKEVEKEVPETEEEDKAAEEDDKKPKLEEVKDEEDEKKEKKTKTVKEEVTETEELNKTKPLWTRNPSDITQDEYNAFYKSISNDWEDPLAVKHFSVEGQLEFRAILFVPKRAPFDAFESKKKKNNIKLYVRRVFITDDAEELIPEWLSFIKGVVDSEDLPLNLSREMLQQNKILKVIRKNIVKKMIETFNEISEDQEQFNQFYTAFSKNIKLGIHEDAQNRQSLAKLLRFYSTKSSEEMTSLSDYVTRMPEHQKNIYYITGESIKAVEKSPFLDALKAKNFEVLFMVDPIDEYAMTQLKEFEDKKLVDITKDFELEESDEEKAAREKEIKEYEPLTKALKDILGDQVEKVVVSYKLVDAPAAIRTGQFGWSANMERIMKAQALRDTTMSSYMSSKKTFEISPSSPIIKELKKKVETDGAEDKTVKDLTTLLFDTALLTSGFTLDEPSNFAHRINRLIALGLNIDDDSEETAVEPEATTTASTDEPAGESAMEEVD
Chain of Cytochrome P450 2C9 (P11712 whole entry): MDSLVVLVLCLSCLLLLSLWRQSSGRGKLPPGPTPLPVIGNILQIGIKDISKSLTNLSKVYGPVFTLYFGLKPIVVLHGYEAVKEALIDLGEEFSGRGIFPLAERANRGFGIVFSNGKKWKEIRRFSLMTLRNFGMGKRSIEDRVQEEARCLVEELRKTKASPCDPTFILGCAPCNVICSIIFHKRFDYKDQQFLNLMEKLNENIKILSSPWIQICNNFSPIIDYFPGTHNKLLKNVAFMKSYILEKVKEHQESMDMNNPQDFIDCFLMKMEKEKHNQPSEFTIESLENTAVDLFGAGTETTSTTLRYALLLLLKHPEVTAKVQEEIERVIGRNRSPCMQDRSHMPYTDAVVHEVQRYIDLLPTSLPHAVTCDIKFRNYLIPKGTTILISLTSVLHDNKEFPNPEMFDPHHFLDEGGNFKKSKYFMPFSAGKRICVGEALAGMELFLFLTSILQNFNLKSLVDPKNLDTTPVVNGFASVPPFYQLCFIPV

## CCCOC(=O)c1c(-c2ccccc2)nc(CC)c(C(=O)SCC)c1CCC
[1]
  AC50: 39.8 µM (inconclusive)
[2]
  AC50: 7.94 µM (inconclusive)
[3]
  CC50: 35.6 µM (active)
[4]
  AC50: 15.8 µM (inconclusive)

## O=C(C1=C[C@H](c2ccc(C(F)(F)F)cc2)C[C@H](OCc2ccc(CO)cc2)O1)N1CCN(Cc2ccc3c(c2)OCO3)CC1
[5]
  AC50: 4.74 µM (active)
[6]
  EC50: 0.265 µM (active)
[7]
  EC50: > 60 µM (not active)
[8]
  AC50: 25.8 µM (active)

## O=C(CNC(=O)c1ccco1)NCC(=O)OCC(=O)c1ccc(Cl)c([N+](=O)[O-])c1
[9]
  IC50: 7.54 µM (active)
[10]
  EC50: > 40 µM (inactive)

## Nc1c(S(=O)(=O)c2ccccc2)c2nc3ccccc3nc2n1CCN1CCOCC1
[11]
  EC50: > 160 µM (inactive)
[12]
  EC50: > 160 µM (inactive)
[13]
  EC50: 0.874 µM (active)
[14]
  EC50: > 180 µM (inactive)

## COc1ccc2c(c1)sc(N)[n+]2Cc1cc(C)cc2cccnc12
[15]
  EC50: 1.55 µM (inconclusive)
[16]
  EC50: 1.5 µM (inconclusive)
[17]
  EC50: 0.605 µM (active)
[18]
  EC50: 8.01 µM (active)
[19]
  EC50: 1.61 µM (active)
[20]
  EC50: 1.98 µM (active)
[21]
  EC50: 7.07 µM (inconclusive)
[22]
  EC50: 0.2 µM (active)
[23]
  EC50: 1.33 µM (active)

## COc1cc(-c2nc3ccccc3s2)ccc1O
[24]
  EC50: > 79.4 µM (not active)
[25]
  IC50: 16.1 µM (active)
[26]
  AC50: 7.81 µM (active)
[27]
  EC50: 13 µM (not active)
[28]
  EC50: 11.7 µM (inactive)
